Laboratory results published in the NIST ThermoML archive (doi:10.1016/j.jct.2015.11.012).

Assay: xn = mol fraction of the nth substance listed
Settings: 100 kPa, Liquid; for viscosity: Capillary tube (Ostwald / Ubbelohde) method; for speed of sound: Frequency=2 MHz, Linear variable-path acoustic interferometer; for mass density: Vibrating tube method

Nc1cccc(Cl)c1 [3-chlorobenzenamine] + NCCO
Settings | mass density [kg/m3] | speed of sound [m/s] | viscosity [mPa·s]
303.15 K, x1 = 0.0857 | 1037.07 | 1689 | 13.56
303.15 K, x1 = 0.1749 | 1063.03 | 1674.4 | 12.66
303.15 K, x1 = 0.2679 | 1086.86 | 1658.9 | 11.72
303.15 K, x1 = 0.3619 | 1108.19 | 1642.4 | 10.77
303.15 K, x1 = 0.4597 | 1127.88 | 1624.3 | 9.773
303.15 K, x1 = 0.5607 | 1145.96 | 1604.9 | 8.747
303.15 K, x1 = 0.6649 | 1162.61 | 1584.1 | 7.685
303.15 K, x1 = 0.7726 | 1177.97 | 1562.3 | 6.586
303.15 K, x1 = 0.8835 | 1192.12 | 1540.1 | 5.451
303.15 K, x1 = 1 | 1205.32 | 1517.5 | 4.255
308.15 K, x1 = 0.0857 | 1032.99 | 1673.4 | 11.04
308.15 K, x1 = 0.1749 | 1058.89 | 1659.2 | 10.35
308.15 K, x1 = 0.2679 | 1082.69 | 1643.1 | 9.621
308.15 K, x1 = 0.3619 | 1103.96 | 1626 | 8.885
308.15 K, x1 = 0.4597 | 1123.59 | 1607.5 | 8.117
308.15 K, x1 = 0.5607 | 1141.65 | 1588.1 | 7.322
308.15 K, x1 = 0.6649 | 1158.22 | 1568.1 | 6.5
308.15 K, x1 = 0.7726 | 1173.53 | 1547.2 | 5.649
308.15 K, x1 = 0.8835 | 1187.62 | 1525.2 | 4.77
308.15 K, x1 = 1 | 1200.75 | 1501.2 | 3.842
313.15 K, x1 = 0.0857 | 1029.02 | 1658.8 | 9.049
313.15 K, x1 = 0.1749 | 1054.84 | 1643.8 | 8.509
313.15 K, x1 = 0.2679 | 1078.52 | 1626.5 | 7.944
313.15 K, x1 = 0.3619 | 1099.7 | 1608.2 | 7.37
313.15 K, x1 = 0.4597 | 1119.25 | 1588.8 | 6.771
313.15 K, x1 = 0.5607 | 1137.2 | 1568.9 | 6.151
313.15 K, x1 = 0.6649 | 1153.72 | 1548.6 | 5.51
313.15 K, x1 = 0.7726 | 1168.97 | 1527.7 | 4.846
313.15 K, x1 = 0.8835 | 1182.98 | 1505.5 | 4.157
313.15 K, x1 = 1 | 1196.02 | 1480.3 | 3.43
318.15 K, x1 = 0.0857 | 1024.4 | 1642 | 7.182
318.15 K, x1 = 0.1749 | 1050.2 | 1627.5 | 6.785
318.15 K, x1 = 0.2679 | 1073.86 | 1610.2 | 6.368
318.15 K, x1 = 0.3619 | 1095.02 | 1591.7 | 5.944
318.15 K, x1 = 0.4597 | 1114.53 | 1572.2 | 5.501
318.15 K, x1 = 0.5607 | 1132.47 | 1552.5 | 5.043
318.15 K, x1 = 0.6649 | 1149 | 1532.6 | 4.568
318.15 K, x1 = 0.7726 | 1164.23 | 1512.3 | 4.075
318.15 K, x1 = 0.8835 | 1178.23 | 1490.5 | 3.565
318.15 K, x1 = 1 | 1191.25 | 1464.8 | 3.022

Nc1cccc(Cl)c1 [3-chlorobenzenamine] + OCCc1ccccc1
Settings | mass density [kg/m3] | speed of sound [m/s] | viscosity [mPa·s]
303.15 K, x1 = 0.0855 | 1027.23 | 1509.6 | 8.643
303.15 K, x1 = 0.1746 | 1043.06 | 1511 | 8.223
303.15 K, x1 = 0.2665 | 1059.74 | 1512.3 | 7.787
303.15 K, x1 = 0.3613 | 1077.27 | 1513.6 | 7.335
303.15 K, x1 = 0.4491 | 1093.81 | 1514.6 | 6.916
303.15 K, x1 = 0.5201 | 1107.41 | 1515.4 | 6.576
303.15 K, x1 = 0.6594 | 1134.71 | 1516.5 | 5.907
303.15 K, x1 = 0.7692 | 1156.83 | 1517 | 5.377
303.15 K, x1 = 0.8787 | 1179.49 | 1517.3 | 4.846
303.15 K, x1 = 1 | 1205.32 | 1517.5 | 4.255
308.15 K, x1 = 0.0855 | 1023.5 | 1492.2 | 6.915
308.15 K, x1 = 0.1746 | 1039.28 | 1493.6 | 6.623
308.15 K, x1 = 0.2665 | 1055.88 | 1495 | 6.319
308.15 K, x1 = 0.3613 | 1073.34 | 1496.3 | 6.005
308.15 K, x1 = 0.4491 | 1089.81 | 1497.4 | 5.712
308.15 K, x1 = 0.5201 | 1103.34 | 1498.3 | 5.473
308.15 K, x1 = 0.6594 | 1130.52 | 1499.6 | 5.005
308.15 K, x1 = 0.7692 | 1152.56 | 1500.4 | 4.632
308.15 K, x1 = 0.8787 | 1175.08 | 1500.9 | 4.259
308.15 K, x1 = 1 | 1200.75 | 1501.2 | 3.842
313.15 K, x1 = 0.0855 | 1019.67 | 1472 | 5.867
313.15 K, x1 = 0.1746 | 1035.39 | 1473.4 | 5.638
313.15 K, x1 = 0.2665 | 1051.92 | 1474.6 | 5.398
313.15 K, x1 = 0.3613 | 1069.28 | 1475.8 | 5.149
313.15 K, x1 = 0.4491 | 1085.67 | 1476.9 | 4.918
313.15 K, x1 = 0.5201 | 1099.15 | 1477.7 | 4.729
313.15 K, x1 = 0.6594 | 1126.19 | 1478.9 | 4.357
313.15 K, x1 = 0.7692 | 1148.11 | 1479.7 | 4.061
313.15 K, x1 = 0.8787 | 1170.53 | 1480.3 | 3.763
313.15 K, x1 = 1 | 1196.02 | 1480.3 | 3.43
318.15 K, x1 = 0.0855 | 1015.75 | 1457.9 | 4.827
318.15 K, x1 = 0.1746 | 1031.43 | 1459.1 | 4.659
318.15 K, x1 = 0.2665 | 1047.87 | 1460.2 | 4.483
318.15 K, x1 = 0.3613 | 1065.15 | 1461.2 | 4.3
318.15 K, x1 = 0.4491 | 1081.46 | 1462.1 | 4.129
318.15 K, x1 = 0.5201 | 1094.86 | 1462.8 | 3.989
318.15 K, x1 = 0.6594 | 1121.8 | 1463.9 | 3.714
318.15 K, x1 = 0.7692 | 1143.63 | 1464.6 | 3.494
318.15 K, x1 = 0.8787 | 1165.92 | 1464.8 | 3.272
318.15 K, x1 = 1 | 1191.25 | 1464.8 | 3.022
